Reference: US20050037450A1, “Novel targets for lithium therapy” (Duke University, priority 2002, published 2005)
Several values for one entry are separate records, joined by “and”; a condition that tells them apart may be missing. Equal values may be shown once. Read-outs that look alike come from different tables or passages of the source.

Key:
Type in all cases: cell-based, S. cerevisiae
Wild type yeast = assay: Lithium inhibition of yeast growth (OD600), wild type; settings: Saccharomyces cerevisiae
Method: FIG. 7 is a graph showing met3Δ and met14Δ strains are lithium resistant. Wild type, met3Δ, and met14Δ yeast were resuspended at 5×10^4/ml in CM/ura^− containing 2% dextrose and 1.25 μg/ml methionine. Growth at various concentrations of LiCl was measured after a 24 hr incubation at 30° C. The growth is plotted relative to growth in media lacking lithium.
FIG. 10 is a graph showing methionine supplementation induces lithium resistance. Wild type yeast were inoculated at 5×10^4 cells per ml into synthetic media with or without methionine containing the noted concentration of LiCl. Growth was assayed by spectrophotometry following 48 hrs of growth at 30° C.
Wild type yeast were grown in CM/ura^− containing 2% galactose to mid-log phase. The cultures were washed and resuspended at 5×10^5 cells/ml in CM/ura^−/met^− containing the noted lithium and chlorate concentrations. Following growth for 24 hr at 30° C., the cultures were resuspended, and growth was measured by determining the absorbance at λ=600 nm.
Since methionine effects transcriptional down regulation of the MET3 and MET14 gene products in wild type yeast, the relative lithium sensitivities of the met3Δ and met14Δ strains were assayed in growth media containing reduced methionine (1.25 μg/ml). The use of limited methionine allowed for the comparison of the relative sensitivity to lithium of yeast expressing (wild type) or lacking (met3Δ and met14Δ) PAPS synthetase activities.
The yeast system was used to determine if chlorate could be used to effect a relevant decrease in the accumulation of PAP in the presence of lithium. […] The decrease in PAP accumulation was physiologically relevant since chlorate produced a protective effect in the presence of lithium. […] When 25 mM NaClO3 is included in the culture medium, the growth inhibition is abated, with the IC50 increasing to approximately 80 mM LiCl (FIG. 11)

[1] = test system: intracellular PAP in met3Δ cells
Method: (§1) Yeast were grown in CM/ura^− containing 2% galactose to mid-log phase. The cultures were washed extensively and resuspended in the CM/ura^−/met^− media with the noted inclusions. PAP was measured using the ligand binding assay described in Experimental Procedures. Intracellular PAP concentrations were normalized to the amount of soluble protein extracted from the cultures.
(§2) For the assay of intracellular PAP concentrations, appropriate yeast strains were grown in CM/ura^− to mid-log phase (OD600=1.0). The cells were centrifuged and washed extensively in sterile water. The cells were resuspended in CM/ura^−/met^− containing methionine (20 μg/ml), lithium, or chlorate as appropriate. The cultures were incubated with shaking at 30° C. At various time points, 2 ml of culture was removed and centrifuged. The cells were washed with 1 ml of water. 250 μl was centrifuged and resuspended in 200 μl K-lysis buffer. 200 μl of glass beads were added, and the cells were disrupted by vigorous bead beating. The amount of soluble protein in this extract was determined using a Bradford dye-binding assay (BioRad, Hercules, Calif., United States of America) with bovine serum albumin as a standard. The remaining 750 μl of washed cells was spun down and resuspended in 250 μl of 2 N HClO4. This was incubated at 4° C. for 20 min, when 250 μl of 1.8 N KOH, 0.4 N KHCO3 were added to neutralize and precipitate the HClO4. The extract was centrifuged at 4° C. to remove the debris, and the supernatant was lyophilized using a rotary evaporator. The dried extracts were frozen at −80° C. for no more than one week prior to use. Extracts were reconstituted in 100 μL of 200 mM HEPES, pH 7.5 and again centrifuged to remove debris. 5′ [^32P] 3′, 5′ PAP was created as described (Spiegelberg, 1999). The GST-PST assay was performed by mixing 10 μL of standard PAP, treated as above, or 10 μL of sample diluted approximately 1:1000 in K-lysis buffer, with 10 μL of radiolabeled PAP (approximately 10,000 CPM). Eighty microliters of a reaction mix containing 100 mM HEPES, pH 7.0, 5 mM DTT, 0.2 mg/ml BSA, and 1 μg of GST-PST were added to start the binding reaction. The reactions were allowed to equilibrate for at least one hour at room temperature. Following incubation, 20 μl of a 50:50 slurry of glutathione sepharose in K-lysis buffer was added. The tubes were incubated with gentle mixing for 10 min at room temperature. The protein with bound PAP was pulled down by centrifugation for 2 min at room temperature. 80 μl of the supernatant, containing free PAP, was removed to a scintillation vial and 200 μl of K-lysis buffer was added to wash the resin. The tubes were centrifuged again and the 200 μl wash was transferred to the original scintillation vials. Radioactivity was determined by adding 5 ml of […] ECONO2™ scintillation fluid (Fisher Scientific, Hampton, N.H., United States of America) and counted in a liquid scintillation counter. The counts were converted to percent isotope bound, and a standard curve was prepared by plotting percent bound vs. the logarithm of the PAP concentration. This standard curve was used to back-calculate the PAP concentration in the unknown samples.
(§3) The GST-PST binding assay was used to determine relative intracellular PAP concentrations in yeast strains grown under various conditions. The PAP concentration determined in the binding assay was normalized to the total soluble protein in parallel extracts, and background was eliminated by reporting only the signal that was sensitive to in vitro degradation by purified recombinant Hal2p. The assay was characterized further by analyzing the intracellular PAP concentration of wild type yeast grown in the presence of lithium.

[2] = test system: intracellular PAP in met14Δ cells
Method: as §1, §2, §3

Question: [Li] [lithium] was tested. Which IC50 (Wild type yeast; CM/ura− 2% dextrose, 1.25 μg/ml methionine, 24 hr at 30° C., growth relative to media lacking lithium, read-out: IC50 of lithium for growth inhibition) did it give?
Answer: ~40 mM

Question: And the IC50 (Wild type yeast; CM/ura−/met−, 24 hr at 30° C., 25 mM NaClO3 in culture medium, read-out: IC50 of LiCl for growth inhibition with chlorate)?
Answer: ~80 mM

Question: What about the IC50 (Wild type yeast; synthetic media without methionine, 48 hrs at 30° C., read-out: IC50 for lithium in met− media) of the same molecule?
Answer: ~40 mM

Question: What about the “Fold increase of PAP concentration” value ([1]; met3Δ expressing hPAPSS2, 100 mM lithium vs absence of lithium) of the same molecule?
Answer: ≥ 72.4 fold

Question: What about the “Intracellular PAP concentration” value ([1]; met3Δ with empty vector, independent of methionine and lithium concentration, data not shown) of the same molecule?
Answer: less than 0.5 nmol PAP/mg soluble protein

Question: What about the “Fold increase of PAP concentration” value ([2]; met14Δ expressing hPAPSS2, 100 mM lithium vs absence of lithium) of the same molecule?
Answer: ≥ 65.4 fold

Question: What about the “Intracellular PAP concentration” value ([2]; met14Δ expressing hPAPSS2, 100 mM lithium, eight hours) of the same molecule?
Answer: ~32.8 nmol/mg and 32.7 nmol/mg

Question: And the “Intracellular PAP concentration” value ([2]; met14Δ with empty vector, independent of methionine and lithium concentration, data not shown)?
Answer: less than 0.5 nmol PAP/mg soluble protein
